We go through 23 compounds from patent US20080200454A1, “CARBON-LINKED TETRAHYDRO-PYRAZOLO-PYRIDINE MODULATORS OF CATHEPSIN S” (priority 2007, published 2008).

Each structure is given as a SMILES string.

One assay deals with Recombinant human cathepsin S (CatS) (Homo sapiens, UniProt P25774). Put plainly: Recombinant human cathepsin S (CatS) inhibition assay, fluorogenic substrate Z-Valine-Valine-Arginine-AMC.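 Also: Baculovirus-expressed CatS in pH 5.0 sodium acetate buffer with DTT and NaCl, fluorescence read each minute over 20 min, inhibition derived from rate slope.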
Chain of Recombinant human cathepsin S (CatS) (P25774 115-331): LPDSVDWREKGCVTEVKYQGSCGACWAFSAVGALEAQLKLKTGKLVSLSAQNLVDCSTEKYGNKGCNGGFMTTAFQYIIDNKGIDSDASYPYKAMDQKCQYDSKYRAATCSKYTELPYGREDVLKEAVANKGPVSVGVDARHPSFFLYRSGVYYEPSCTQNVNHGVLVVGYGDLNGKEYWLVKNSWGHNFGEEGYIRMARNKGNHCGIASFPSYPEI
Conditions: not given
On to `COC(=O)CNCc1cc(C#Cc2cc(-c3nn(CCCN4CCOC[C@@H]4C)c4c3CN(C(=O)C(N)=O)CC4)ccc2Cl)ccc1Cl` [Example 294, Methyl N-[(5-{[5-(5-[amino(oxo)acetyl]-1-{3-[(3S)-3-methylmorpholin-4-yl]propyl}-4,5,6,7-tetrahydro-1H-pyrazolo[4,3-c]pyridin-3-yl)-2-chlorophenyl]ethynyl}-2-chlorophenyl)methyl]glycinate], for which the IC50 (commonly the point on the concentration scale where inhibition reaches its midpoint) worked out at 20 nM. On the same count and under the same terms, in the case of `CC1COCCN1C[C@H](O)Cn1nc(-c2ccc(Cl)c(C#Cc3ccc(CNCc4ccc(Cl)cc4)cc3)c2)c2c1CCN(S(C)(=O)=O)C2` (stereo in doubt) [Example 266, (2S)-1-[3-(4-Chloro-3-{4-[(4-chloro-benzylamino)-methyl]-phenylethynyl}-phenyl)-5-methanesulfonyl-4,5,6,7-tetrahydro-pyrazolo[4,3-c]pyridin-1-yl]-3-((3S)-3-methyl-morpholin-4-yl)-propan-2-ol] it was 350 nM.

Regarding `CC(=O)NCc1ccc(C#Cc2cc(-c3nn(CCCN4CCOCC4)c4c3CN(S(C)(=O)=O)CC4)ccc2Cl)cc1` [Example 72, N-(4-{2-Chloro-5-[5-methanesulfonyl-1-(3-morpholin-4-yl-propyl)-4,5,6,7-tetrahydro-1H-pyrazolo[4,3-c]pyridin-3-yl]-phenylethynyl}-benzyl)-acetamide], the IC50 is 490 nM. For `Cc1ccc(CNCc2ccc(C#Cc3cc(-c4nn(CCCN5CCOCC5)c5c4CN(S(C)(=O)=O)CC5)ccc3Cl)cc2)cc1` [Example 75, (4-{2-Chloro-5-[5-methanesulfonyl-1-(3-morpholin-4-yl-propyl)-4,5,6,7-tetrahydro-1H-pyrazolo[4,3-c]pyridin-3-yl]-phenylethynyl]-benzyl)-(4-methyl-benzyl)-amine], the IC50 was 350 nM. On to `NC(=O)N1CCc2c(c(-c3ccc(Cl)c(C#Cc4ccc(CNCc5ccc(Cl)cc5)cc4)c3)nn2CCCN2CCN(c3cccc[n+]3[O-])CC2)C1` [Example 454, 3-(4-Chloro-3-{[4-({[(4-chlorophenyl)methyl]amino}methyl)phenyl]ethynyl}phenyl)-1-{3-[4-(1-oxidopyridin-2-yl)piperazin-1-yl]propyl}-1,4,6,7-tetrahydro-5H-pyrazolo[4,3-c]pyridine-5-carboxamide], for which the 50% inhibitory concentration (IC50) came out at 40 nM. For `O=C(N1CCOCC1)N1CCc2c(c(-c3ccc(Cl)c(C#Cc4ccc(CNCc5ccc(Cl)cc5)cc4)c3)nn2CCCN2CCOCC2)C1` [Example 497, 1-[4-({2-Chloro-5-[5-(morpholin-4-ylcarbonyl)-1-(3-morpholin-4-ylpropyl)-4,5,6,7-tetrahydro-1H-pyrazolo[4,3-c]pyridin-3-yl]phenyl}ethynyl)phenyl]-N-[(4-chlorophenyl)methyl]methanamine], the IC50 was 1630 nM. For the compound `COC(=O)C1CCN(CC(O)Cn2nc(-c3ccc(Cl)c(C#Cc4ccc(Cl)cc4)c3)c3c2CCN(S(C)(=O)=O)C3)CC1` (centres unmarked) [Example 127, 1-(3-{3-[4-Chloro-3-(4-chloro-phenylethynyl)-phenyl]-5-methanesulfonyl-4,5,6,7-tetrahydro-pyrazolo[4,3-c]pyridin-1-yl}-2-hydroxy-propyl)-piperidine-4-carboxylic acid methyl ester], the IC50 turned out to be 20 nM.

For the compound `CC1CCCN(CCCCc2cc(-c3nn(CCCN4CCC(N5CCCC5=O)CC4)c4c3CN(S(C)(=O)=O)CC4)ccc2Cl)C1` (centres unmarked) [Example 111, 1-{1-[3-(3-{4-Chloro-3-[4-(3-methyl-piperidin-1-yl)-butyl]-phenyl}-5-methanesulfonyl-4,5,6,7-tetrahydro-pyrazolo[4,3-c]pyridin-1-yl)-propyl]-piperidin-4-yl}-pyrrolidin-2-one], the IC50 was found to be 2040 nM.

With `CC(C)(C)OC(=O)N1CCN(CC(O)Cn2nc(-c3ccc(Cl)c(C#Cc4ccc(Cl)cc4)c3)c3c2CCN(S(C)(=O)=O)C3)CC1` (centres unmarked) [Example 131, 4-(3-{3-[4-Chloro-3-(4-chloro-phenylethynyl)-phenyl]-5-methanesulfonyl-4,5,6,7-tetrahydro-pyrazolo[4,3-c]pyridin-1-yl}-2-hydroxy-propyl)-piperazine-1-carboxylic acid tert-butyl ester], the IC50 worked out at 160 nM. `NC(=O)C(=O)N1CCc2c(c(-c3ccc(Cl)c(C#Cc4ccc(Cl)c(C(=O)NCC5CNCCO5)c4)c3)nn2CCCN2CCSCC2)C1` (centres unmarked) [Example 580, 5-[(5-{5-[Amino(oxo)acetyl]-1-(3-thiomorpholin-4-ylpropyl)-4,5,6,7-tetrahydro-1H-pyrazolo[4,3-c]pyridin-3-yl}-2-chlorophenyl)ethynyl]-2-chloro-N-(morpholin-2-ylmethyl)benzamide]: the IC50 is 30 nM. The same measure, in the same setting: in the case of `CC1COCCN1CCCn1nc(-c2ccc(Cl)c(C#Cc3ccc(Cl)c(CNCC4CCCO4)c3)c2)c2c1CCN(C(N)=O)C2` (stereo in doubt) [Example 223, 3-{4-Chloro-3-[(4-chloro-3-{[(tetrahydrofuran-2-ylmethyl)amino]methyl}phenyl)ethynyl]phenyl}-1-{3-[(3S)-3-methylmorpholin-4-yl]propyl}-1,4,6,7-tetrahydro-5H-pyrazolo[4,3-c]pyridine-5-carboxamide] it was 20 nM; in that of `CS(=O)(=O)N1CCc2c(c(-c3cccc(CCc4cccc(O)c4)c3)nn2CCCN2CCOCC2)C1` [Example 296, 3-(2-{3-[5-(Methylsulfonyl)-1-(3-morpholin-4-ylpropyl)-4,5,6,7-tetrahydro-1H-pyrazolo[4,3-c]pyridin-3-yl]phenyl}ethyl)phenol], 15500 nM; in that of `Clc1ccc(CNCc2ccc(C#Cc3cc(-c4nn(CCCN5CCOCC5)c5c4CNCC5)ccc3Cl)cc2)cc1` [Example 166, 1-[4-({2-Chloro-5-[1-(3-morpholin-4-ylpropyl)-4,5,6,7-tetrahydro-1H-pyrazolo[4,3-c]pyridin-3-yl]phenyl}ethynyl)phenyl]-N-[(4-chlorophenyl)methyl]methanamine], 2520 nM. On to `CS(=O)(=O)N1CCc2c(c(-c3ccc(Cl)c(C#Cc4ccc(CNCc5ccc(Cl)cc5)cc4)c3)nn2CCCN2CCC(c3ccccc3)CC2)C1` [Example 178, 1-{4-[(2-Chloro-5-{5-(methylsulfonyl)-1-[3-(4-phenylpiperidin-1-yl)propyl]-4,5,6,7-tetrahydro-1H-pyrazolo[4,3-c]pyridin-3-yl}phenyl)ethynyl]phenyl}-N-[(4-chlorophenyl)methyl]methanamine], for which the IC50 came to 10 nM. Take `CS(=O)(=O)N1CCc2c(c(-c3ccc(Cl)c(C#Cc4ccccn4)c3)nn2CCCN2CCOCC2)C1` [Example 22, 3-(4-Chloro-3-pyridin-2-ylethynyl-phenyl)-5-methanesulfonyl-1-(3-morpholin-4-yl-propyl)-4,5,6,7-tetrahydro-1H-pyrazolo[4,3-c]pyridine]: the IC50 came to 1850 nM.

Staying with this assay, now noted: CatS IC50.
For the compound `CS(=O)(=O)N1CCc2c(c(-c3ccc(Cl)c(C#Cc4ccc(CNCc5ccc(Cl)cc5)cc4)c3)nn2CCCN2CCN(c3cccnc3)CC2)C1` [Example 417, 1-{4-[(2-Chloro-5-{5-(methylsulfonyl)-1-[3-(4-pyridin-3-ylpiperazin-1-yl)propyl]-4,5,6,7-tetrahydro-1H-pyrazolo[4,3-c]pyridin-3-yl}phenyl)ethynyl]phenyl}-N-[(4-chlorophenyl)methyl]methanamine], the IC50 was 20 nM. As for `CS(=O)(=O)N1CCc2c(c(-c3ccc(Cl)c(C#Cc4ccc(CNCCO)cc4)c3)nn2CCCN2CCOCC2)C1` [Example 469, 2-({[4-({2-Chloro-5-[5-(methylsulfonyl)-1-(3-morpholin-4-ylpropyl)-4,5,6,7-tetrahydro-1H-pyrazolo[4,3-c]pyridin-3-yl]phenyl}ethynyl)phenyl]methyl}amino)ethanol], the IC50 is 530 nM. Turning to `O=C(CO)N1CCc2c(c(-c3ccc(Cl)c(C#Cc4ccc(CNCc5ccc(Cl)cc5)cc4)c3)nn2CCCN2CCSCC2)C1` [Example 413, 2-[3-(4-Chloro-3-{[4-({[(4-chlorophenyl)methyl]amino}methyl)phenyl]ethynyl}phenyl)-1-(3-thiomorpholin-4-ylpropyl)-1,4,6,7-tetrahydro-5H-pyrazolo[4,3-c]pyridin-5-yl]-2-oxoethanol], the IC50 is 100 nM. Take `CS(=O)(=O)N1CCc2c(c(-c3ccc(Cl)c(C#Cc4ccccc4Cl)c3)nn2CCCN2CCOCC2)C1` [Example 26, 3-[4-Chloro-3-(2-chloro-phenylethynyl)-phenyl]-5-methanesulfonyl-1-(3-morpholin-4-yl-propyl)-4,5,6,7-tetrahydro-1H-pyrazolo[4,3-c]pyridine]: the IC50 was found to be 720 nM. As for `NC(=O)N1CCc2c(c(-c3ccc(Cl)c(C#Cc4ccc(Cl)c(C(=O)N5CCCNCC5)c4)c3)nn2CCCN2CCSCC2)C1` [Example 572, 3-(4-Chloro-3-{[4-chloro-3-(1,4-diazepan-1-ylcarbonyl)phenyl]ethynyl}phenyl)-1-(3-thiomorpholin-4-ylpropyl)-1,4,6,7-tetrahydro-5H-pyrazolo[4,3-c]pyridine-5-carboxamide], the half-inhibitory concentration (IC50) is 170 nM.

Take `NC(=O)N1CCc2c(c(-c3ccc(Cl)c(C#Cc4ccc(CN[C@@H]5CCCc6ccccc65)cc4)c3)nn2CCCN2CCOCC2)C1` [Example 477, 3-{4-Chloro-3-[(4-{[(1R)-1,2,3,4-tetrahydronaphthalen-1-ylamino]methyl}phenyl)ethynyl]phenyl}-1-(3-morpholin-4-ylpropyl)-1,4,6,7-tetrahydro-5H-pyrazolo[4,3-c]pyridine-5-carboxamide]: the IC50 worked out at 100 nM.

Consider `CS(=O)(=O)N1CCc2c(c(-c3ccc(Cl)c(C#Cc4cccc(CNCc5ccc(Cl)cc5)c4)c3)nn2CCCN2CCN(c3ccccn3)CC2)C1` [Example 447, 1-{3-[(2-Chloro-5-{5-(methylsulfonyl)-1-[3-(4-pyridin-2-ylpiperazin-1-yl)propyl]-4,5,6,7-tetrahydro-1H-pyrazolo[4,3-c]pyridin-3-yl}phenyl)ethynyl]phenyl}-N-[(4-chlorophenyl)methyl]methanamine], for which the IC50 worked out at 70 nM.

Staying with this assay, now noted: CatS IC50, Table 2; average of results obtained.
Consider `CCCCC#Cc1cc(-c2nn(CCCN3CCOCC3)c3c2CN(S(C)(=O)=O)CC3)ccc1Cl` [Example 47, 3-(4-Chloro-3-hex-1-ynyl-phenyl)-5-methanesulfonyl-1-(3-morpholin-4-yl-propyl)-4,5,6,7-tetrahydro-1H-pyrazolo[4,3-c]pyridine], for which the IC50 is 10600 nM.
